From publication PMC4301837, “Aldosterone synthase inhibition: cardiorenal protection in animal disease models and translation of hormonal effects to human subjects” (Journal of Translational Medicine, 2014)
pEC50, pIC50: −log10 of the molar value. Marks after values point to notes of the source that are not given here.

Assays:
[1] = dogs, ref D. Rigel, personal communication, cited from earlier work
[2] = system: ACTH-stimulated aldosterone and corticosterone synthesis; set-up: method as in PMID 20354176; conditions: in vivo rat ACTH stimulation model; previous study; cited from earlier work
[3] = system: Ang II-stimulated aldosterone release; set-up: method as in D. Rigel, personal communication; conditions: dogs; ref D. Rigel, personal communication; read-out: EC50, inhibition of Ang II-stimulated aldosterone release; cited from earlier work
human CYP11B2 = system: human CYP11B2; set-up: method as in PMID 24899257; conditions: cited from earlier work
[4] = system: dTG rats with pre-established cardiorenal disease; experiment: Survival study in older, enalapril-pre-treated dTG rats with established cardiorenal disease; type: in vivo, rat; conditions: male dTG rats, 10 mg/kg/day (40 mg/L in drinking water) from 3 to 8 weeks of age
healthy male volunteers [5] = experiment: Human pharmacodynamics, multiple-dose phase
[6] = system: dTG rats overexpressing human renin and angiotensinogen; experiment: Survival study in young dTG rats; type: in vivo, rat
healthy male volunteers [7] = experiment: Human safety and tolerability; type: in vivo; conditions: single or multiple doses
[8] = system: ACTH-stimulated aldosterone, cortisol and precursors; experiment: Human ACTH (cortisol) stimulation test, multiple-dose phase; type: in vivo
[9] = system: dTG rats overexpressing human renin and angiotensinogen; type: in vivo
[10] = eplerenone 100 mg once daily, ANCOVA mean
[11] = dTG rats, LCI699 3–100 mg/kg/day, eplerenone 30 mg/kg/day

SMILES: N#Cc1ccc([C@H]2CCCc3cncn32)cc1 [FAD286A, reference compound]
- oral bioavailability ([1]; 1 mg/kg oral dose): 33%
- half-life [1]: 54 to 72 min
- pEC50 [3]: 6.87

SMILES: CCOC(=O)[C@H](CCc1ccccc1)N[C@@H](C)C(=O)N1CCC[C@H]1C(=O)O [enalapril, reference compound]
- prolongation of median survival by pre-treatment [4]: approximately 4 months

SMILES: COC(=O)[C@@H]1CC2=CC(=O)CC[C@]2(C)[C@@]23O[C@@H]2C[C@@]2(C)[C@@H](CC[C@@]24CCC(=O)O4)[C@H]13 [eplerenone, reference compound]
- Plasma potassium, Δ Day2 vs baseline (Day −1) (healthy male volunteers [5]; [10]): +0.08 mEq/L
- Plasma potassium, Δ Day7 vs baseline (Day −1) (healthy male volunteers [5]; [10]): −0.02 mEq/L
- Plasma potassium, Δ Day14 vs Day 7 (healthy male volunteers [5]; [10]): −0.09 mEq/L
- Plasma sodium, Δ Day2 vs baseline (Day −1) (healthy male volunteers [5]; [10]): −0.64 mEq/L
- Plasma sodium, Δ Day7 vs baseline (Day −1) (healthy male volunteers [5]; [10]): +0.31 mEq/L
- Plasma sodium, Δ Day14 vs Day 7 (healthy male volunteers [5]; [10]): −0.07 mEq/L
- Urinary potassium, Δ Day 1 vs baseline (Day −1) (healthy male volunteers [5]; [10]): +5.2 mEq/24 h
- Urinary potassium, Δ Day 7 vs baseline (Day −1) (healthy male volunteers [5]; [10]): +6.4 mEq/24 h
- Urinary potassium, Δ Day 14 vs Day 7 (healthy male volunteers [5]; [10]): +3.7 mEq/24 h
- Urinary sodium, Δ Day 1 vs baseline (Day −1) (healthy male volunteers [5]; [10]): +53.8‡ mEq/24 h
- Urinary sodium, Δ Day 7 vs baseline (Day −1) (healthy male volunteers [5]; [10]): +16.2 mEq/24 h
- Urinary sodium, Δ Day 14 vs Day 7 (healthy male volunteers [5]; [10]): −24.0 mEq/24 h
- effect on plasma aldosterone concentration (healthy male volunteers [5]; eplerenone 100 mg, Day 1): had no effect
- increase in 24 hour urinary aldosterone (healthy male volunteers [5]; eplerenone 100 mg, Day 1): 34%
- increase in 24 h urinary aldosterone levels (healthy male volunteers [5]; eplerenone 100 mg, Day 7): 118%
- increase in PRA from baseline (healthy male volunteers [5]; eplerenone 100 mg, Day 7): 92%
- increase in plasma aldosterone (healthy male volunteers [5]; eplerenone 100 mg, Day 7): 46%
- increase in 24 h urinary aldosterone levels (healthy male volunteers [5]; eplerenone 100 mg, Day 14): 161%
- increase in PRA (healthy male volunteers [5]; eplerenone 100 mg, Day 14): 130%
- increase in plasma aldosterone (healthy male volunteers [5]; eplerenone 100 mg, Day 14): 63%
- maximum effective dose for prolongation of survival ([6]; young dTG rats): 30 mg/kg
- doses at which survival was significantly prolonged ([6]; young dTG rats without established cardiorenal disease, P < 0.01): > 10 mg/kg/day
- maximum median survival time ([6]; young dTG rats, dose–median survival curves): 8.4 weeks
- changes in supine systolic or diastolic blood pressure or heart rate compared with placebo (healthy male volunteers [7]): no consistent changes
- effect on ACTH-stimulated 11-DOC levels ([8]; LCI699 0.5 mg, eplerenone 100 mg): no significant effect
- effect on cortisol precursors (ACTH-stimulated) ([8]; eplerenone 100 mg and lower doses of LCI699 (0.5, 1 mg), Day 6 or Day 13): no significant effect
- increase in ACTH-stimulated peak aldosterone levels ([8]; eplerenone 100 mg, Day 6): 63%
- increase in pre-ACTH aldosterone levels 2 h post-dose vs Day −2 ([8]; eplerenone 100 mg, Day 6): 29%
- effect on BUN levels ([9]; 30 mg/kg): no significant effect
- effect on LV fractional shortening ([9]; 30 mg/kg): no significant effect
- effect on LV isovolumic relaxation time to RR (IVRT/RR) ratio ([9]; 30 mg/kg): no significant effect
- effect on urine output ([9]; 30 mg/kg): no significant effect
- effect on plasma aldosterone concentration ([9]; dTG rats treated 3 to 7 weeks of age, LCI699 3–100 mg/kg/day in drinking water, eplerenone 30 mg/kg/day in chow): had no effect
- effect on myocardial cell size ([9]; dTG rats, LCI699 3–100 mg/kg/day, eplerenone 30 mg/kg): reduced but did not normalize
- effect on mean arterial pressure [9, 11]: neither LCI699 nor eplerenone normalized arterial pressure
- effect on serum potassium [9, 11]: had no effect
- effect on urinary albumin excretion [9, 11]: slightly increased
- effect on urinary aldosterone excretion [9, 11]: significantly increased
- effect on LV weight ([9]; dTG rats, LCI699 3–100 mg/kg/day, eplerenone 30 mg/kg, data not shown): had no effect
